From patent US20220306647A1, “NOVEL INDOLE-2-CARBOXAMIDES ACTIVE AGAINST THE HEPATITUS B VIRUS (HBV)” (AICURIS GMBH & CO. KG, priority 2019, published 2022)

Target: T1, HBV core protein (C-terminal truncated core protein, 149 amino acids of the N-terminal assembly domain, BODIPY-FL labelled) (UniProt P03146)
T1 construct: fused on or other part: A single cysteine added after residue 149, at position 150; It carries the BODIPY-FL maleimide label
Experiment: Biochemical capsid assembly assay (fluorescence quenching)
Conditions: assembly started with NaCl, fluorescence read after 6 min, read-out: Assembly activity
Experimental: The screening for assembly effector activity was done based on a fluorescence quenching assay published by Zlotnick et al. (2007). The C-terminal truncated core protein containing 149 amino acids of the N-terminal assembly domain fused to a unique cysteine residue at position 150 and was expressed in E. coli using the pET expression system (Merck Chemicals, Darmstadt). Purification of core dimer protein was performed using a sequence of size exclusion chromatography steps. In brief, the cell pellet from 1 L BL21 (DE3) Rosetta2 culture expressing the coding sequence of core protein cloned NdeI/XhoI into expression plasmid pET21b was treated for 1 h on ice with a native lysis buffer (Qproteome Bacterial Protein Prep Kit; Qiagen, Hilden). After a centrifugation step the supernatant was precipitated during 2 h stirring on ice with 0.23 g/ml of solid ammonium sulfate. Following further centrifugation the resulting pellet was resolved in buffer A (100 mM Tris, pH 7.5; 100 mM NaCl; 2 mM DTT) and was subsequently loaded onto a buffer A equilibrated CaptoCore 700 column (GE HealthCare, Frankfurt). The column flow through containing the assembled HBV capsid was dialyzed against buffer N (50 mM NaHCO3 pH 9.6; 5 mM DTT) before urea was added to a final concentration of 3M to dissociate the capsid into core dimers for 1.5 h on ice. The protein solution was then loaded onto a 1L Sephacryl S300 column. After elution with buffer N core dimer containing fractions were identified by SDS-PAGE and subsequently pooled and dialyzed against 50 mM HEPES pH 7.5; 5 mM DTT. To improve the assembly capacity of the purified core dimers a second round of assembly and disassembly starting with the addition of 5 M NaCl and including the size exclusion chromatography steps described above was performed. From the last chromatography step core dimer containing fractions were pooled and stored in aliquots at concentrations between 1.5 to 2.0 mg/ml at −80° C.
Immediately before labelling the core protein was reduced by adding freshly prepared DTT in a final concentration of 20 mM. After 40 min incubation on ice storage buffer and DTT was removed using a Sephadex G-25 column (GE HealthCare, Frankfurt) and 50 mM HEPES, pH 7.5. For labelling 1.6 mg/ml core protein was incubated at 4° C. and darkness overnight with BODIPY-FL maleimide (Invitrogen, Karlsruhe) in a final concentration of 1 mM. After labelling the free dye was removed by an additional desalting step using a Sephadex G-25 column. Labelled core dimers were stored in aliquots at 4° C. In the dimeric state the fluorescence signal of the labelled core protein is high and is quenched during the assembly of the core dimers to high molecular capsid structures. The screening assay was performed in black 384 well microtiter plates in a total assay volume of 10 μl using 50 mM HEPES pH 7.5 and 1.0 to 2.0 μM labelled core protein. Each screening compound was added in 8 different concentrations using a 0.5 log-unit serial dilution starting at a final concentration of 100 μM, 31.6 μM or 10 μM, In any case the DMSO concentration over the entire microtiter plate was 0.5%. The assembly reaction was started by the injection of NaCl to a final concentration of […] which induces the assembly process to approximately 25% of the maximal quenched signal. 6 min after starting the reaction the fluorescence signal was measured using a Clariostar plate reader (BMG Labtech, Ortenberg) with an excitation of 477 nm and an emission of 525 nm. As 100% and 0% assembly control HEPES buffer containing 2.5 M and 0 M NaCl was used. Experiments were performed thrice in triplicates. EC50 values were calculated by non-linear regression analysis using the Graph Pad Prism 6 software (GraphPad Software, La Jolla, USA).

T1 sequence (P03146 whole entry, the tested form may be a part): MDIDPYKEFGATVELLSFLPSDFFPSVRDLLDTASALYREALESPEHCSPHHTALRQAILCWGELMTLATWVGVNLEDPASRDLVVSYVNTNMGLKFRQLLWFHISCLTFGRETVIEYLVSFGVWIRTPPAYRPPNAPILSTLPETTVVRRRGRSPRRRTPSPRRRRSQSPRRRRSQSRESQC

O=C(O)c1ccc(C2(NC(=O)c3cnn4c3CN(C(=O)c3cc5ccccc5[nH]3)CC4)CC2)nc1 [Example 19, 6-{1-[5-(1H-indole-2-carbonyl)-4H,5H,6H,7H-pyrazolo[1,5-a]pyrazine-3-amido]cyclopropyl}pyridine-3-carboxylic acid]
IC50: < 100 µM

O=C(O)c1cnc(C2(NC(=O)c3cnn4c3CN(C(=O)c3cc5ccccc5[nH]3)CC4)CC2)nc1 [Example 20, 2-{1-[5-(1H-indole-2-carbonyl)-4H,5H,6H,7H-pyrazolo[1,5-a]pyrazine-3-amido]cyclopropyl}pyrimidine-5-carboxylic acid]
IC50: < 5 µM

O=C(O)c1cnc(C2(NC(=O)c3cnn4c3CN(C(=O)c3cc5ccccc5[nH]3)CC4)CC2)nc1 [Example 29, 2-{1-[5-(1H-indole-2-carbonyl)-4H,5H,6H,7H-pyrazolo[1,5-a]pyrazine-3-amido]cyclopropyl}pyrimidine-5-carboxylic acid]
IC50: < 100 µM

O=C(O)c1cccc(C2(NC(=O)c3cnn4c3CN(C(=O)c3cc5ccccc5[nH]3)CC4)CC2)c1 [Example 32, 3-{1-[5-(1H-indole-2-carbonyl)-4H,5H,6H,7H-pyrazolo[1,5-a]pyrazine-3-amido]cyclopropyl}benzoic acid]
IC50: < 5 µM

CN(C(=O)c1cnn2c1CN(C(=O)c1cc3ccccc3[nH]1)CC2)C1(c2nccc(C(=O)O)n2)CC1 [Example 36, 2-{1-[N-methyl-5-(1H-indole-2-carbonyl)-4H,5H,6H,7H-pyrazolo[1,5-a]pyrazine-3-amido]cyclopropyl}pyrimidine-4-carboxylic acid]
IC50: < 5 µM

CN(C(=O)c1[nH]nc2c1CN(C(=O)c1cc3ccccc3[nH]1)CC2)C1(c2ccc(C(=O)O)cc2)CC1 [Example 44, 4-{1-[N-methyl-5-(1H-indole-2-carbonyl)-2H,4H,5H,6H,7H-pyrazolo[4,3-c]pyridine-3-amido]cyclopropyl}benzoic acid]
IC50: < 5 µM

CN(C(=O)c1[nH]nc2c1CN(C(=O)c1cc3ccccc3[nH]1)CC2)C1(c2ncc(C(=O)O)cn2)CC1 [Example 56, 2-{1-[N-methyl-5-(1H-indole-2-carbonyl)-2H,4H,5H,6H,7H-pyrazolo[4,3-c]pyridine-3-amido]cyclopropyl}pyrimidine-5-carboxylic acid]
IC50: 5 to 10 µM

CN(C(=O)c1cnn2c1CN(C(=O)c1cc3c(F)c(F)ccc3[nH]1)CC2)C1(c2ncc(C(=O)O)cn2)CC1 [Example 58, 2-{1-[N-methyl-5-(4,5-difluoro-1H-indole-2-carbonyl)-4H,5H,6H,7H-pyrazolo[1,5-a]pyrazine-3-amido]cyclopropyl}pyrimidine-5-carboxylic acid]
IC50: < 5 µM

Cc1c(F)ccc2[nH]c(C(=O)N3CCn4ncc(C(=O)N(C)C5(c6ncc(C(=O)O)cn6)CC5)c4C3)cc12 [Example 59, 2-{1-[N-methyl-5-(5-fluoro-4-methyl-1H-indole-2-carbonyl)-4H,5H,6H,7H-pyrazolo[1,5-a]pyrazine-3-amido]cyclopropyl}pyrimidine-5-carboxylic acid]
IC50: < 5 µM

CN(C(=O)c1[nH]nc2c1CN(C(=O)c1cc3c(F)c(F)ccc3[nH]1)CC2)C1(c2ccc(C(=O)O)cc2)CC1 [Example 65, 4-{1-[N-methyl-5-(4,5-difluoro-1H-indole-2-carbonyl)-2H,4H,5H,6H,7H-pyrazolo[4,3-c]pyridine-3-amido]cyclopropyl}benzoic acid]
IC50: < 5 µM

Cc1c(F)ccc2[nH]c(C(=O)N3CCc4n[nH]c(C(=O)N(C)C5(c6ccc(C(=O)O)cc6)CC5)c4C3)cc12 [Example 66, 4-{1-[N-methyl-5-(5-fluoro-4-methyl-1H-indole-2-carbonyl)-2H,4H,5H,6H,7H-pyrazolo[4,3-c]pyridine-3-amido]cyclopropyl}benzoic acid]
IC50: < 5 µM

Cc1cc(F)cc2[nH]c(C(=O)N3CCc4n[nH]c(C(=O)N(C)C5(c6ccc(C(=O)O)cc6)CC5)c4C3)cc12 [Example 67, 4-{1-[N-methyl-5-(6-fluoro-4-methyl-1H-indole-2-carbonyl)-2H,4H,5H,6H,7H-pyrazolo[4,3-c]pyridine-3-amido]cyclopropyl}benzoic acid]
IC50: < 5 µM

CN(C(=O)c1[nH]nc2c1CN(C(=O)c1cc3c(Cl)cccc3[nH]1)CC2)C1(c2ncc(C(=O)O)cn2)CC1 [Example 70, 2-{1-[N-methyl-5-(4-chloro-1H-indole-2-carbonyl)-2H,4H,5H,6H,7H-pyrazolo[4,3-c]pyridine-3-amido]cyclopropyl}pyrimidine-5-carboxylic acid]
IC50: < 5 µM

CN(C(=O)c1[nH]nc2c1CN(C(=O)c1cc3c(F)c(F)ccc3[nH]1)CC2)C1(c2ncc(C(=O)O)cn2)CC1 [Example 71, 2-{1-[N-methyl-5-(4,5-difluoro-1H-indole-2-carbonyl)-2H,4H,5H,6H,7H-pyrazolo[4,3-c]pyridine-3-amido]cyclopropyl}pyrimidine-5-carboxylic acid]
IC50: < 5 µM

Cc1c(F)ccc2[nH]c(C(=O)N3CCc4n[nH]c(C(=O)N(C)C5(c6ncc(C(=O)O)cn6)CC5)c4C3)cc12 [Example 72, 2-{1-[N-methyl-5-(5-fluoro-4-methyl-1H-indole-2-carbonyl)-2H,4H,5H,6H,7H-pyrazolo[4,3-c]pyridine-3-amido]cyclopropyl}pyrimidine-5-carboxylic acid]
IC50: < 5 µM

Cc1cc(F)cc2[nH]c(C(=O)N3CCc4n[nH]c(C(=O)N(C)C5(c6ncc(C(=O)O)cn6)CC5)c4C3)cc12 [Example 73, 2-{1-[N-methyl-5-(6-fluoro-4-methyl-1H-indole-2-carbonyl)-2H,4H,5H,6H,7H-pyrazolo[4,3-c]pyridine-3-amido]cyclopropyl}pyrimidine-5-carboxylic acid]
IC50: < 5 µM

CN(C(=O)c1cnn2c1CN(C(=O)c1cc3ccccc3[nH]1)CC2)C1(COc2ccc(C(=O)O)cc2Cl)CC1 [Example 101, 3-chloro-4-({1-[N-methyl-5-(1H-indole-2-carbonyl)-4H,5H,6H,7H-pyrazolo[1,5-a]pyrazine-3-amido]cyclopropyl}methoxy)benzoic acid]
IC50: < 5 µM

O=C(c1cc2ccccc2[nH]1)N1CCc2noc(C(=O)N3CCC(O)CC34CC4)c2C1 (stereo not shown) [Example 102, 4-[5-(1H-indole-2-carbonyl)-4H,5H,6H,7H-[1,2]oxazolo[4,3-c]pyridine-3-carbonyl]-4-azaspiro[2.5]octan-7-ol]
IC50: < 5 µM

C[C@@H](NC(=O)c1noc2c1CN(C(=O)c1cc3cc(F)c(F)cc3[nH]1)CC2)C(F)(F)F [Example 111, 5-(5,6-difluoro-1H-indole-2-carbonyl)-N-[(2R)-1,1,1-trifluoropropan-2-yl]-4H,5H,6H,7H-[1,2]oxazolo[4,5-c]pyridine-3-carboxamide]
IC50: < 5 µM

C[C@@H](NC(=O)c1noc2c1CN(C(=O)c1cc3c(F)cc(F)cc3[nH]1)CC2)C(F)(F)F [Example 112, 5-(4,6-difluoro-1H-indole-2-carbonyl)-N-[(2R)-1,1,1-trifluoropropan-2-yl]-4H,5H,6H,7H-[1,2]oxazolo[4,5-c]pyridine-3-carboxamide]
IC50: < 5 µM

C[C@@H](NC(=O)c1onc2c1CN(C(=O)c1cc3cc(F)c(F)cc3[nH]1)CC2)C(F)(F)F [Example 115, 5-(5,6-difluoro-1H-indole-2-carbonyl)-N-[(2R)-1,1,1-trifluoropropan-2-yl]-4H,5H,6H,7H-[1,2]oxazolo[4,3-c]pyridine-3-carboxamide]
IC50: < 5 µM

C[C@@H](NC(=O)c1onc2c1CN(C(=O)c1cc3c(Cl)cccc3[nH]1)CC2)C(F)(F)F [Example 118, 5-(4-chloro-1H-indole-2-carbonyl)-N-[(2R)-1,1,1-trifluoropropan-2-yl]-4H,5H,6H,7H-[1,2]oxazolo[4,3-c]pyridine-3-carboxamide]
IC50: < 5 µM
